How the values were obtained:
Assay in all cases: relative viability (nuclei count vs DMSO), 5 days (fraction); higher = more cells survive
[1] = compound: CCC1=CN=CN=C1N2CCN(CC2)CC3=NC4=C(N3)C=C(C=C4)C(F)(F)F
Summary of the method: (§1)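 For viability, nuclei in each treated well were divided by nuclei in vehicle wells and the median across plates was taken. Lung cancer cell lines in 1536-well plates were pinned with five library-drug doses (not always all listed) spaced by √10, cultured 5 days without medium change, and imaged at 4× after Hoechst staining, with plates passing only at control CV below 25% and at least one doubling.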

Mirin = compound: N=C1NC(=O)/C(=C/c2ccc(O)cc2)S1 [Mirin]
Summary of the method: as §1

[2] = compound: CCn1c(-c2nonc2N)nc2cnc(Oc3cccc(NC(=O)c4ccc(OCCN5CCOCC5)cc4)c3)cc21
Summary of the method: as §1

[3] = compound: CCC1=CN=CN=C1N2CCN(CC2)CC3=NC4=C(N3)C=C(C=C4)C(F)(F)F + Cc1nc(NC(=O)N2CCC[C@H]2C(N)=O)sc1-c1ccnc(C(C)(C)C(F)(F)F)c1 [Alpelisib] (partner 2 µM)
Summary of the method: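 Dosing by pin tool came one day after lung cancer cell lines were seeded in 1536-well plates, using either one drug or a fixed anchor-drug dose plus five library-drug doses (not always all listed) in √10 steps. After 5 days, nuclei were counted on 4× images. Relative viability is treated-well nuclei count divided by vehicle-well nuclei count, and values are medians of duplicate plates.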

| Cell Line | relative viability ([1]; 0.04 µM) | relative viability ([1]; 0.1265 µM) | relative viability ([1]; 0.4 µM) | relative viability ([1]; 1.265 µM) | relative viability ([1]; 4 µM) | relative viability (Mirin; 0.25 µM) | relative viability (Mirin; 0.7906 µM) | relative viability (Mirin; 2.5 µM) | relative viability (Mirin; 7.906 µM) | relative viability (Mirin; 25 µM) | relative viability ([2]; 0.04 µM) | relative viability ([2]; 0.1265 µM) | relative viability ([2]; 0.4 µM) | relative viability ([2]; 1.265 µM) | relative viability ([2]; 4 µM) | relative viability ([3]; first compound 0.04 µM) | relative viability ([3]; first compound 0.1265 µM) | relative viability ([3]; first compound 0.4 µM) | relative viability ([3]; first compound 4 µM) | relative viability ([3]; first compound 1.265 µM) |
| --- | --- | --- | --- | --- | --- | --- | --- | --- | --- | --- | --- | --- | --- | --- | --- | --- | --- | --- | --- | --- |
| NCI-H727 | 1.05 | 0.909 | 0.981 | 0.603 | 0.91 | 1.14 | 0.918 | 1.06 | 1.27 | 1.15 | 1.21 | 1.15 | 0.767 | 0.986 | 0.947 | 0.684 | 0.483 | 0.463 | 0.544 | – |
| NCI-H1734 | 0.88 | 0.98 | 0.943 | 0.814 | 1.03 | 0.978 | 0.761 | 0.929 | 0.895 | 0.884 | 0.961 | 0.878 | 0.545 | 0.418 | 0.362 | 0.686 | 0.754 | 0.795 | 0.676 | – |
| NCI-H647 | 0.891 | 0.915 | 0.828 | 0.711 | 1.03 | 1.11 | 0.864 | 0.975 | 0.918 | 0.904 | 1.08 | 0.707 | 0.705 | 0.458 | 0.55 | 1.16 | 1.05 | – | 1.05 | 1.02 |
| NCI-H1944 | 1.11 | 0.929 | 0.847 | 0.652 | 0.852 | 0.979 | 0.952 | 0.971 | 0.898 | 0.625 | 0.977 | 0.946 | 0.577 | 0.576 | 0.336 | 0.993 | 0.827 | 0.778 | 0.802 | – |
| LK-2 | 0.989 | 1.01 | 0.832 | 0.718 | 0.912 | 0.881 | 0.686 | 1.03 | 0.647 | 0.534 | 1.23 | 1.19 | 0.774 | 0.686 | 0.843 | 1.14 | 1.09 | 0.991 | 1.06 | 0.775 |
| HCC-15 | 0.999 | 0.946 | 0.934 | 0.897 | 1.04 | 1.06 | 0.798 | 0.979 | 0.884 | 0.953 | 1.12 | 0.964 | 0.844 | 0.77 | 0.911 | 0.954 | 0.877 | 0.925 | 0.889 | 0.892 |
| NCI-H838 | 0.997 | 0.941 | 0.942 | 0.828 | 0.957 | 0.999 | 0.93 | 1.02 | 1.02 | 0.959 | 0.854 | 0.517 | 0.409 | 0.406 | 0.319 | 1.1 | 0.963 | 0.971 | 0.986 | 0.994 |
| HOP-62 | 1.03 | 0.946 | 0.95 | 0.936 | 1.06 | 0.979 | 1.07 | 0.983 | 0.856 | 1.1 | 1.13 | 1.02 | 0.899 | 0.549 | 0.537 | 1.16 | 0.962 | 0.815 | 1.13 | 1.01 |
